# What was measured:
# Type in all cases: physicochemical
# [1] = Solid phase stability experiment (sealed at 60° C., HPLC purity); conditions: for solid phase stability (in words): 60° C., at 7 days and 21 days
# Experimental: 5 mg of samples were weighed and sealed at 60° C., respectively. Another set of samples were sealed and stored at −20° C. as a control at the same time. All samples were characterized by HPLC at 7 days and 21 days to detect changes in purity.
# [2] = Hygroscopicity experiment (DVS); conditions: for hygroscopicity (in words): DVS, 25° C.; for moisture absorbed: humidity increased to 80% RH at 25° C.
# From the text: The Dynamic Vapor Sorption (DVS) curve was acquired on the DVS Intrinsic of Surface Measurement Systems.
# The DVS test results of the crystal form A and the crystal form B-1 were shown in FIG. 26 and FIG. 27, respectively.
# The DVS test results of the crystal form C, crystal form D-2, crystal form E, and crystal form F were shown in FIG. 28, FIG. 29, FIG. 30, and FIG. 31.
# [3] = Solubility experiment in 0.1M HCl, buffers and water; conditions: for Solubility (mg/mL) 0.1M HCl / Solubility (mg/mL) pH 4.5 / Solubility (mg/mL) pH 6.8 / Solubility (mg/mL) H2O: ambient temperature; for Solubility (mg/mL) pH 4.5: pH 4.5 buffer; for Solubility (mg/mL) pH 6.8: pH 6.8 buffer; for solubility in water compared with the free base (in words) / Solubility (mg/mL) H2O: water
# Experimental: The solubilities of the following four kinds of salt and free base sample in 0.1M HCl, pH 4.5 buffer, pH 6.8 buffer, and water were tested at ambient temperature. In the test, the calibration curves of free base and four kinds of salt were plotted. 3 mg of solid samples of free base and four kinds of salt were weighed, respectively, and then 1 ml of the solvent was added, centrifuged after 30 min ultrasound. The supernatant was taken, and injected through the membrane, and the solubility was tested.
# [4] = Solubility of crystal form I in common solvents; conditions: ambient temperature; for solubility: thermodynamic from solid
# Experimental: The solubility of the crystal form I in 11 common solvents at ambient temperature was tested. In the experiment, the crystal form I was formulated into standard solutions of different concentrations using 50% acetonitrile as solvent according to the following table, and injected to the HPLC instrument. The peak area was recorded and the standard curve was plotted, and the curve equation: y=11.30762x, R^2=0.99998, which has a good linear correlation in a range of 4.9 μg/ml˜499 μg/ml was obtained. 10-80 mg of crystal form I was weighed into 0.5-10 ml of different solutions in the following table to prepare a saturated solution, sonicated for 3-5 min, dispersed evenly and then taken out, centrifuged at 12000 rpm for 5 min. The supernatant was drawn and diluted at a certain multiple, injected to the HPLC, the peak area was recorded, the sample concentration was calculated, and the pH of undiluted samples was determined.
smiles,measurement,setting,value
CS(=O)(=O)C1(c2cc(-c3cnc(N)cc3Cl)nc(N3CCOCC3)n2)CC1 [crystal form A],solid phase stability (in words),[1],good stability
same,Purity (%),[1]; 60° C.-0 day,99.73%
same,Total impurities (%),[1]; 60° C.-0 day,0.27%
same,Purity (%),"[1]; 60° C.-7 days, sealed",99.78%
same,Total impurities (%),"[1]; 60° C.-7 days, sealed",0.22%
same,Purity (%),"[1]; 60° C.-21 days, sealed",99.75%
same,Total impurities (%),"[1]; 60° C.-21 days, sealed",0.25%
same,hygroscopicity (in words),[2],slightly hygroscopic
same,Solubility (mg/mL) 0.1M HCl,[3],>2.744 mg/mL
same,Solubility (mg/mL) pH 4.5,[3],0.020 mg/mL
same,Solubility (mg/mL) pH 6.8,[3],0.012 mg/mL
same,solubility in water compared with the free base (in words),[3],obviously improved
same,Solubility (mg/mL) H2O,[3],1.063 mg/mL
CS(=O)(=O)C1(c2cc(-c3cnc(N)cc3Cl)nc(N3CCOCC3)n2)CC1 [crystal form B-1],solid phase stability (in words),[1],good stability
same,Purity (%),[1]; 60° C.-0 day,99.74%
same,Total impurities (%),[1]; 60° C.-0 day,0.26%
same,Purity (%),"[1]; 60° C.-7 days, sealed",99.50%
same,Total impurities (%),"[1]; 60° C.-7 days, sealed",0.50%
same,Purity (%),"[1]; 60° C.-21 days, sealed",99.74%
same,Total impurities (%),"[1]; 60° C.-21 days, sealed",0.26%
same,hygroscopicity (in words),[2],slightly hygroscopic
same,Solubility (mg/mL) 0.1M HCl,[3],>2.488 mg/mL
same,Solubility (mg/mL) pH 4.5,[3],0.026 mg/mL
same,Solubility (mg/mL) pH 6.8,[3],0.012 mg/mL
same,solubility in water compared with the free base (in words),[3],obviously improved
same,Solubility (mg/mL) H2O,[3],0.946 mg/mL
CS(=O)(=O)C1(c2cc(-c3cnc(N)cc3Cl)nc(N3CCOCC3)n2)CC1 [crystal form C],solid phase stability (in words),[1],good stability
same,Purity (%),[1]; 60° C.-0 day,99.73%
same,Total impurities (%),[1]; 60° C.-0 day,0.27%
same,Purity (%),"[1]; 60° C.-7 days, sealed",99.74%
same,Total impurities (%),"[1]; 60° C.-7 days, sealed",0.26%
same,Purity (%),"[1]; 60° C.-21 days, sealed",99.75%
same,Total impurities (%),"[1]; 60° C.-21 days, sealed",0.25%
same,hygroscopicity (in words),[2],almost no hygroscopicity
same,moisture absorbed,[2],0.17%
same,Solubility (mg/mL) 0.1M HCl,[3],1.875 mg/mL
same,Solubility (mg/mL) pH 4.5,[3],0.027 mg/mL
same,Solubility (mg/mL) pH 6.8,[3],0.010 mg/mL
same,solubility in water compared with the free base (in words),[3],obviously improved
same,Solubility (mg/mL) H2O,[3],0.174 mg/mL
CS(=O)(=O)C1(c2cc(-c3cnc(N)cc3Cl)nc(N3CCOCC3)n2)CC1 [crystal form D-2],solid phase stability (in words),[1],good stability
same,Purity (%),[1]; 60° C.-0 day,98.37%
same,Total impurities (%),[1]; 60° C.-0 day,1.63%
same,Purity (%),"[1]; 60° C.-7 days, sealed",98.22%
same,Total impurities (%),"[1]; 60° C.-7 days, sealed",1.78%
same,Purity (%),"[1]; 60° C.-21 days, sealed",98.25%
same,Total impurities (%),"[1]; 60° C.-21 days, sealed",1.75%
same,hygroscopicity (in words),[2],almost no hygroscopicity
same,moisture absorbed,[2],0.14%
same,Solubility (mg/mL) 0.1M HCl,[3],1.195 mg/mL
same,Solubility (mg/mL) pH 4.5,[3],0.031 mg/mL
same,Solubility (mg/mL) pH 6.8,[3],0.013 mg/mL
same,solubility in water compared with the free base (in words),[3],slightly improved
same,Solubility (mg/mL) H2O,[3],0.023 mg/mL
CS(=O)(=O)C1(c2cc(-c3cnc(N)cc3Cl)nc(N3CCOCC3)n2)CC1 [crystal form E],hygroscopicity (in words),[2],almost no hygroscopicity
same,moisture absorbed,[2],0.12%
CS(=O)(=O)C1(c2cc(-c3cnc(N)cc3Cl)nc(N3CCOCC3)n2)CC1 [crystal form F],hygroscopicity (in words),[2],almost no hygroscopicity
same,moisture absorbed,[2],0.26%
"CS(=O)(=O)C1(c2cc(-c3cnc(N)cc3Cl)nc(N3CCOCC3)n2)CC1 [crystal form I, 4-chloro-5-(6-(1-(methylsulfonyl)cyclopropyl)-2-morpholinopyrimidin-4-yl)pyridin-2-amine]",hygroscopicity (in words),[2],almost no hygroscopicity
same,water absorbed,[2]; humidity increased to 90% RH at 25° C.,0.084%
same,Concentration,[4]; 50% acetonitrile,10998 µg/mL
same,Concentration,[4]; acetone,28464 µg/mL
same,Concentration,[4]; acetonitrile,13724 µg/mL
same,solubility,"[4]; aqueous with cosolvent or surfactant or cyclodextrin, 50% acetonitrile",11000 µg/mL
same,Concentration,[4]; ethanol,4680 µg/mL
same,Concentration,[4]; ethyl acetate,12441 µg/mL
same,Concentration,[4]; isopropanol,1837 µg/mL
same,Concentration,[4]; methanol,9459 µg/mL
same,Concentration,[4]; methyl tert-butyl ether,1044 µg/mL
same,solubility,"[4]; organic solvent or mixture, acetone",28500 µg/mL
same,solubility,"[4]; organic solvent or mixture, acetonitrile",13700 µg/mL
same,solubility,"[4]; organic solvent or mixture, ethanol",> 4680 µg/mL
same,solubility,"[4]; organic solvent or mixture, ethyl acetate",12400 µg/mL
same,solubility,"[4]; organic solvent or mixture, isopropanol",> 1840 µg/mL
same,solubility,"[4]; organic solvent or mixture, methanol",> 9460 µg/mL
same,solubility,"[4]; organic solvent or mixture, methyl tert-butyl ether",> 1040 µg/mL
same,solubility,"[4]; organic solvent or mixture, tetrahydrofuran",78100 µg/mL
same,Concentration,[4]; tetrahydrofuran,78135 µg/mL
same,solubility,[4]; water,185 µg/mL
same,Concentration,[4]; water,185 µg/mL
